In assay [1] the test system is N. gonorrhoeae F89. In words: Minimum Inhibitory Concentration (MIC) on GCB plates. It is filed as cell-based, Neisseria gonorrhoeae. The settings on record: ceftriaxone-resistant strain F89. How it is done: (§1) Non-piliated variants of the indicated strains of Neisseria gonorrhoeae were grown overnight on GCB plates, resuspended in GCB broth with Kellogg's supplements I and II (Kellogg et al. (1963) Neisseria gonorrhoeae. I. Virulence genetically linked to colonial variation. J Bacteriol 85, 1274-1279), 10 mM MgCl2, and 20 mM sodium bicarbonate at a final OD600 of 0.018 (˜1×10^7 cfu/ml). Aliquots (5 μl) of each strain was spotted onto GCB plates containing the compounds at 2-fold dilution intervals. The MIC was defined as the lowest concentration of antibiotic on which fewer than 5 colonies appeared after 24 hrs of incubation.
(§2) FA19 is an antibiotic-susceptible strain (Maness, M. J., and Sparling, P. F. (1973) Multiple antibiotic resistance due to a single mutation in Neisseria gonorrhoeae. J Infect Dis 128, 321-330). 35/02 is a cephalosporin-intermediate resistant strain of N. gonorrhoeae isolated in Sweden in 2002 (Lindberg et al. (2007) Neisseria gonorrhoeae isolates with reduced susceptibility to cefixime and ceftriaxone: association with genetic polymorphisms in penA, mtrR, porB1b, and ponA. Antimicrob Agents Chemother 51, 2117-2122). This strain contains a mosaic penA gene (encoding variants of Penicillin-Binding Protein 2) associated with cephalosporin resistance, but the strain is not fully resistant. […] Lastly, F89 has an MIC of ceftriaxone=2 μg/ml (Unemo et al. (2011) High-level cefixime- and ceftriaxone-resistant N. gonorrhoeae in France: novel penA mosaic allele in a successful international clone causes treatment failure. Antimicrob Agents Chemother 56, 1273-1280).
(§3) “MIC50” refers to an amount, concentration or dosage of a particular test compound that achieves a 50% inhibition of a growth of a target organism. […] Representative results are also illustrated in Table 1.

The subject of a further assay is N. gonorrhoeae 35/02. The assay is described as above. It is filed as cell-based, Neisseria gonorrhoeae. As to conditions: cephalosporin-intermediate resistant strain 35/02. The method, then: as §1, §2, §3
Assay [2] relates to N. gonorrhoeae HO41. Described as above. The settings on record: ceftriaxone-resistant strain HO41. It is filed as cell-based, Neisseria gonorrhoeae. How it is done: as §1, §2, §3
Another assay relates to N. gonorrhoeae FA19. Described as above. It is filed as cell-based, Neisseria gonorrhoeae. The settings on record: antibiotic-susceptible strain FA19. The method, then: as §1, §2, §3
For assay [3], the system named is multidrug-resistant H041 N. gonorrhoeae. In words: murine gonococcal infection model (in vivo clearance). The arrangement: species or system mice. The source says: FIG. 2 illustrates in vivo efficacy of Example 3 in the murine gonococcal infection model. (A) efficacy of Example 3 administered intraperitoneally. […] (B) efficacy of Example 3 administrated orally. Mice were infected with multidrug-resistant H041 N. gonorrhoeae via an established protocol.
Female Mouse Model of Infection: Female BALB/c mice (Charles River Laboratories, NCI Frederick strain of inbred BALB/cAnNCr mice, strain code 555) were allowed to acclimate to the USU animal facility in autoclaved cages and bedding and with autoclaved water and chow for 10 days. After the acclimation period and […] to bacterial inoculation (day −4), vaginal smears were stained with a modified Wright's stain (Hem3, Fisher HealthCare Protocol) and examined to identify mice in anestrus or in the diestrus stage of the estrous cycle. […] On day −2, mice were inoculated vaginally with 20 μl of strain H041 rpsL suspended in PBS; suspensions were passed through a […] filter to remove aggregates and adjusted to the absorbance A600 reading at 600 nm (A600) that was predicted to be 5×10^5 CFU/ml, which is the concentration needed to inoculate mice with the number of viable gonococci needed to infect 80% of mice (infectious dose 80; ID80). […]
Vaginal swabs were quantitatively cultured for Gc on days −1 and 0 following vaginal inoculation to confirm infection prior to treatment. […]

In the next assay the test system is E. coli strain O18:H7:K1. In words: murine E. coli intraperitoneal sepsis model. The settings on record: mice infected with E. coli O18:H7:K1, single dose. The format is in vivo. An excerpt: FIG. 3 illustrates in vivo efficacy of Example 4 in the murine E. coli sepsis model. (A) dose response curves of Example 4 in a murine intraperitoneal sepsis model. Mice were infected with the E. coli strain O18:H7:K1.

The next assay relates to B. cepacia. The assay can be described thus: MIC against clinical strains. The format is cell-based. The settings on record: Burkholderia cepacia; B. cepacia clinical strains (n = 5). How it is done: (§4) The antibiotic activities of the compounds useful in the methods of the disclosure are evaluated by measurements of minimum inhibitory concentrations (MICs) using E. coli, P. aeruginosa, K. pneumoniae and B. cepacia.

The subject of a further assay is K. pneumoniae. The assay can be described thus: MIC against clinical strains. The format is cell-based. The settings on record: Klebsiella pneumoniae; K. pneumoniae clinical strains (n = 10). The method, then:
as §4

The subject of a further assay is E. coli. The assay can be described thus: MIC against clinical strains. The format is cell-based. The settings on record: Escherichia coli; E. coli clinical strains (n = 10). How it is done:
as §4

The test system of another assay is P. aeruginosa. The assay can be described thus: MIC against clinical strains. The format is cell-based. The settings on record: Pseudomonas aeruginosa; P. aeruginosa clinical strains (n = 10). The method, then:
as §4

Assay [4] has as its system N. gonorrhoeae F89. As to conditions: literature value (Unemo et al. 2011); cited from earlier work.
For assay [5], the system named is N. gonorrhoeae HO41. The settings on record: literature value (Ohnishi et al. 2011); cited from earlier work.

In brackets after ≈: the same amount, converted by molar mass.

The MIC50 is an inhibitory concentration at the 50% level, which refers to growth in some studies and to a panel of isolates in others. A low value points to greater potency. For orientation: MIC90 means the lowest concentration that inhibits either 90% of growth or 90% of the strains tested, depending on the study.

As to `C[C@@](O)(C(F)F)[C@H](NC(=O)c1ccc(-c2ccccc2)cc1)C(=O)NO` [Example 2, N-((2S,3S)-4,4-difluoro-3-hydroxy-1-(hydroxyamino)-3-methyl-1-oxobutan-2-yl)-[1,1′-biphenyl]-4-carboxamide], the “MIC N. gonorrhoeae F89” value against N. gonorrhoeae F89 [1] worked out at 0.007. In addition, the “MIC N. gonorrhoeae 35/02” value against N. gonorrhoeae 35/02 is recorded as 0.02. Further, the “MIC N. gonorrhoeae HO41” value in the assay with N. gonorrhoeae HO41 [2] is reported as 0.004. Moreover, the “MIC N. gonorrhoeae FA19” value in the assay with N. gonorrhoeae FA19 was found to be 0.002.

On to `CC(C)(C)C(=O)ONC(=O)[C@@H](NC(=O)c1ccc(-c2ccccc2)cc1)[C@](C)(O)C(F)F` [Example 3, N-((2S,3S)-4,4-difluoro-3-hydroxy-3-methyl-1-oxo-1-((pivaloyloxy)amino)butan-2-yl)-[1,1′-biphenyl]-4-carboxamide], for which the “in vivo efficacy, administered orally” value in assay [3] (female BALB/c mice, vaginal infection with H041 rpsL, oral, four consecutive days) is on record as “exhibited in vivo efficacy”. In [3] (mice infected with H041 N. gonorrhoeae, intraperitoneal, once daily vs twice daily at half of the dose), the “in vivo efficacy, administered intraperitoneally” value was “once daily treatment (circles) is more effective than the twice daily treatment at half of the dose”.

For `C[C@@](O)(C(F)F)[C@H](NC(=O)c1ccc(C#CC#CC2CC2)cc1)C(=O)NO` [Example 4, 4-(cyclopropylbuta-1,3-diyn-1-yl)-N-((2S,3S)-4,4-difluoro-3-hydroxy-1-(hydroxyamino)-3-methyl-1-oxobutan-2-yl)benzamide], the “MIC N. gonorrhoeae F89” value against N. gonorrhoeae F89 [1] is given as 0.008. Also, in the assay on N. gonorrhoeae 35/02, the “MIC N. gonorrhoeae 35/02” value is recorded as 0.063. Further, in the assay with N. gonorrhoeae HO41 [2], the “MIC N. gonorrhoeae HO41” value is on record as 0.026. In addition, the “MIC N. gonorrhoeae FA19” value in the assay on N. gonorrhoeae FA19 worked out at 0.016. The “clearance of E. coli infection” value with E. coli strain O18:H7:K1 is given as “cleared E. coli infections in the majority of mice”. Further, the MIC50 against B. cepacia is 0.03 µg/mL (≈ 0.0797 µM); in the assay on K. pneumoniae, 0.06 µg/mL (≈ 0.159 µM); in the assay on E. coli it was 0.02 µg/mL (≈ 0.0531 µM); against P. aeruginosa, 0.16 µg/mL (≈ 0.425 µM). Moreover, the MIC90 against B. cepacia came to 0.13 µg/mL (≈ 0.345 µM); in the assay with K. pneumoniae it was 0.25 µg/mL (≈ 0.664 µM); against E. coli, 0.02 µg/mL (≈ 0.0531 µM); with P. aeruginosa it was 0.32 µg/mL (≈ 0.85 µM).

Turning to `CO/N=C(\C(=O)N[C@@H]1C(=O)N2C(C(=O)O)=C(CSc3nc(=O)c(=O)[nH]n3C)CS[C@H]12)c1csc(N)n1` [ceftriaxone], the “MIC of ceftriaxone, strain F89” value with N. gonorrhoeae F89 [4] is 2 µg/mL. Moreover, the “MIC of ceftriaxone, strain H041” value in the assay on N. gonorrhoeae HO41 [5] is 2 to 4 µg/mL.

Consider `C[C@@](O)(C(F)F)[C@H](NCCCc1ccc(-c2ccccc2)cc1)C(=O)NO`, for which the “MIC N. gonorrhoeae F89” value in the assay with N. gonorrhoeae F89 [1] was found to be 0.03. Further, the “MIC N. gonorrhoeae 35/02” value against N. gonorrhoeae 35/02 stood at 0.03. Also, the “MIC N. gonorrhoeae HO41” value with N. gonorrhoeae HO41 [2] is recorded as 0.03. Besides, the “MIC N. gonorrhoeae FA19” value against N. gonorrhoeae FA19 was determined as 0.02.

The values are drawn from US12103904B2, “Benzoylglycine derivatives and methods of making and using same” (Duke University, priority 2016, dated 2024).
